# Reference: patent US11066447B2, “Aureobasidium derivatives and methods of synthesis” (AureoGen Biosciences, Inc., priority 2016, dated 2021)
# Like-named read-outs stand apart in the source and are kept apart here. Numbered stars: 1 amine (or outer) side, 2 acyl side, 3 side chain; on linkers, the order of the positions; unused ones are H or OH. Square brackets hold non-standard residues; d marks the D form. Peptide text beside a SMILES is read from it. X8 = CC(=O)N1CCN(c2ccc(-c3cccc(C[C@@H](C(=O)[*:2])N(C)[*:1])c3)cn2)CC1; X19 = CN([C@@H](Cc1cccc(-c2ccc(OCc3ccccc3)cc2)c1)C(=O)[*:2])[*:1]; X3 = CN1CCN(c2ccc(-c3cccc(C[C@@H](C(=O)[*:2])N(C)[*:1])c3)cn2)CC1; X9 = CN1CCN(c2cccc(-c3cccc(C[C@@H](C(=O)[*:2])N(C)[*:1])c3)n2)CC1; X23 = CN([C@@H](Cc1cccc(-c2cccc3c2cnn3C)c1)C(=O)[*:2])[*:1]; Hmp(2R,3S) = CC[C@H](C)[C@@H](O)C(=O)O; NMeVal(β-OH) = CN[C@H](C(=O)O)C(C)(C)O; NMeV = CN[C@H](C(=O)O)C(C)C
# Key:
# [1] = tested on: C. parapsilosis MMX 2323 ATCC 22019; test: MIC assay (CLSI microdilution); format: cell-based, Candida parapsilosis
# Outline: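 Broth microdilution MIC testing of Candida parapsilosis ATCC 22019 followed CLSI methods in RPMI-1640, with or without 0.002% Tween-80. Yeast grown 48 hours at 35° C on Sabouraud dextrose agar was suspended to a 0.5 McFarland standard and diluted 1:100 to roughly 0.5-2.5×10^3 CFU/mL. The MIC was the lowest concentration preventing visible growth.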
# [2] = tested on: A. fumigatus MMX 6782 ATCC 13073; test: MIC/MEC assay (CLSI microdilution); format: cell-based; details: Aspergillus fumigatus
# Outline: (§1)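 Aspergillus isolates received approx. 0.2-2.5×10^4 CFU/mL final inoculum in RPMI-1640 plus 0.002% Tween-80, per CLSI microdilution. MMX 5280 was additionally run without Tween-80. Test compounds were serially diluted two-fold in 95% ethanol.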
# [3] = tested on: A. flavus MMX 5948; test: MIC/MEC assay (CLSI microdilution); format: cell-based; details: Aspergillus flavus
# Outline: as §1
# [4] = tested on: A. niger MMX 0624 ATCC 16888; test: MIC/MEC assay (CLSI microdilution); format: cell-based
# Outline: as §1
# [5] = tested on: A. fumigatus MMX 6781 ATCC MYA-4609; test: MIC/MEC assay (CLSI microdilution); format: cell-based; details: Aspergillus fumigatus
# Outline: as §1
# [6] = tested on: A. fumigatus from Aureogen; test: MIC/MEC assay (CLSI microdilution); format: cell-based; details: Aspergillus fumigatus
# Outline: as §1
# [7] = tested on: A. fumigatus MMX 5944; test: MIC/MEC assay (CLSI microdilution); format: cell-based
# Outline: as §1
# [8] = tested on: A. fumigatus MMX 5280 ATCC MYA-3626; test: MIC/MEC assay (CLSI microdilution); format: cell-based, Aspergillus fumigatus
# Outline: as §1
# [9] = tested on: C. albicans MMX 2000 ATCC 10231; test: MIC assay (CLSI microdilution); format: cell-based; details: Candida albicans
# [10] = tested on: C. neoformans MMX 0634 ATCC 90112; test: MIC assay (CLSI microdilution); format: cell-based; details: Cryptococcus neoformans, read-out: MIC
# [11] = tested on: C. albicans MMX 2000 ATCC 10231; test: MIC assay (CLSI microdilution); format: cell-based; details: Candida albicans, ATCC10231, RPMI plus 0.002% Tween-80; read-out: MIC
# [12] = ATCC22019, RPMI plus 0.002% Tween-80, read-out: MIC
# [13] = ATCC22019, Without Tween-80, read-out: MIC
# [14] = ATCC13073, 48 h, RPMI plus 0.002% Tween-80, read-out: MEC
# [15] = ATCC13073, 48 h, RPMI plus 0.002% Tween-80, read-out: MIC
# [16] = MMX5948, 48 h, RPMI plus 0.002% Tween-80
# [17] = MMX5948, 48 h, RPMI plus 0.002% Tween-80, read-out: MIC
# [18] = Aspergillus niger, ATCC16888, 48 h, RPMI plus 0.002% Tween-80, read-out: MEC
# [19] = Aspergillus niger, ATCC16888, 48 h, RPMI plus 0.002% Tween-80, read-out: MIC
# [20] = 48 h, RPMI plus 0.002% Tween-80, read-out: MIC
# [21] = RPMI plus 0.002% Tween-80, 48 hr
# [22] = 48 h, RPMI plus 0.002% Tween-80
# [23] = Aspergillus fumigatus, MMX5944, 48 h, RPMI plus 0.002% Tween-80
# [24] = Aspergillus fumigatus, MMX5944, 48 h, RPMI plus 0.002% Tween-80, read-out: MIC
# [25] = Aspergillus fumigatus, 48 h, RPMI plus 0.002% Tween-80, read-out: MEC
# [26] = Aspergillus fumigatus, 48 h, RPMI plus 0.002% Tween-80, read-out: MIC
# [27] = Aspergillus fumigatus, 48 h, Without Tween-80, read-out: MEC
# [28] = Aspergillus fumigatus, 48 h, Without Tween-80, read-out: MIC
# [29] = ATCC10231, Without Tween-80, read-out: MIC
# [30] = ATCC90112, 72 h, 72 hour, RPMI plus 0.002% Tween-80
# [31] = ATCC90112, RPMI plus 0.002% Tween-80
# [32] = RPMI plus 0.002% Tween-80, 48 hr, read-out: MIC
SMILES,"MIC [1, 12]","MIC [1, 13]","minimal effective concentration [2, 14]","MIC [2, 15]","minimal effective concentration [3, 16]","MIC [3, 17]","minimal effective concentration [4, 18]","MIC [4, 19]","MIC [5, 20]","minimal effective concentration [5, 21]","minimal effective concentration [6, 22]","MIC [6, 20]","minimal effective concentration [7, 23]","MIC [7, 24]","minimal effective concentration [8, 25]","MIC [8, 26]","minimal effective concentration [8, 27]","MIC [8, 28]","MIC [9, 29]","MIC [10, 30]",further results
"CC[C@H](C)[C@@H]1NC(=O)[C@@H]2CCCN2C(=O)[C@H](Cc2cccc(-c3cccc(N4CCN(C)CC4)n3)c2)N(C)C(=O)[C@H](Cc2ccccc2)NC(=O)[C@H](C(C)C)N(C)C(=O)[C@@H]([C@@H](C)CC)OC(=O)[C@H](C(C)(C)O)N(C)C(=O)[C@H](CC(C)C)NC(=O)[C@H](C(C)C)N(C)C1=O [Compound 33] (cyclo(F[X9]PI[NMeV]L[NMeVal(β-OH)][Hmp(2R,3S)][NMeV]))",0.03 µg/mL,0.5 µg/mL,0.06 µg/mL,0.12 µg/mL,0.12 µg/mL,0.5 µg/mL,0.03 µg/mL,0.03 µg/mL,0.12 µg/mL,0.03 µg/mL,0.06 µg/mL,0.06 µg/mL,0.5 µg/mL,0.5 µg/mL,0.015 µg/mL,0.25 µg/mL,0.5 µg/mL,1 µg/mL,0.5 µg/mL,0.06 µg/mL,MIC [11]: 0.004 µg/mL
"CC[C@H](C)[C@@H]1NC(=O)[C@@H]2CCCN2C(=O)[C@H](Cc2cccc(-c3ccc(N4CCN(C(C)=O)CC4)nc3)c2)N(C)C(=O)[C@H](Cc2ccccc2)NC(=O)[C@H](C(C)C)N(C)C(=O)[C@@H]([C@@H](C)CC)OC(=O)[C@H](C(C)(C)O)N(C)C(=O)[C@H](CC(C)C)NC(=O)[C@H](C(C)C)N(C)C1=O [Compound 32] (cyclo(F[X8]PI[NMeV]L[NMeVal(β-OH)][Hmp(2R,3S)][NMeV]))",0.25 µg/mL,2 µg/mL,> 64 µg/mL,> 64 µg/mL,0.25 µg/mL,1 µg/mL,0.5 µg/mL,1 µg/mL,> 64 µg/mL,> 64 µg/mL,> 64 µg/mL,> 64 µg/mL,1 µg/mL,> 64 µg/mL,2 µg/mL,> 64 µg/mL,> 64 µg/mL,> 64 µg/mL,2 µg/mL,2 µg/mL,MIC [11]: 0.03 µg/mL
"CC[C@H](C)[C@@H]1NC(=O)[C@@H]2CCCN2C(=O)[C@H](Cc2cccc(-c3ccc(N4CCN(C)CC4)nc3)c2)N(C)C(=O)[C@H](Cc2ccccc2)NC(=O)[C@H](C(C)C)N(C)C(=O)[C@@H]([C@@H](C)CC)OC(=O)[C@H](C(C)(C)O)N(C)C(=O)[C@H](CC(C)C)NC(=O)[C@H](C(C)C)N(C)C1=O [Compound 20] (cyclo(F[X3]PI[NMeV]L[NMeVal(β-OH)][Hmp(2R,3S)][NMeV]))",0.03 µg/mL,1 µg/mL,0.03 µg/mL,0.12 µg/mL,0.008 µg/mL,0.015 µg/mL,0.008 µg/mL,0.015 µg/mL,0.12 µg/mL,0.06 µg/mL,0.03 µg/mL,0.12 µg/mL,0.015 µg/mL,0.12 µg/mL,0.06 µg/mL,0.25 µg/mL,0.5 µg/mL,1 µg/mL,0.5 µg/mL,0.12 µg/mL,"MIC ([1]; Without Tween-80): 2 µg/mL; MEC ([8]; Without Tween-80, 48 hr): 1 µg/mL; MIC ([8]; Without Tween-80, 48 hr): 2 µg/mL; MIC [10, 31]: 0.03 µg/mL; MIC [11]: 0.008 µg/mL"
"CC[C@H](C)[C@@H]1NC(=O)[C@@H]2CCCN2C(=O)[C@H](Cc2cccc(-c3cccc4c3cnn4C)c2)N(C)C(=O)[C@H](Cc2ccccc2)NC(=O)[C@H](C(C)C)N(C)C(=O)[C@@H]([C@@H](C)CC)OC(=O)[C@H](C(C)(C)O)N(C)C(=O)[C@H](CC(C)C)NC(=O)[C@H](C(C)C)N(C)C1=O [Compound 14] (cyclo(F[X23]PI[NMeV]L[NMeVal(β-OH)][Hmp(2R,3S)][NMeV]))",0.12 µg/mL,1 µg/mL,–,–,–,–,–,–,–,1 µg/mL,–,–,–,–,0.5 µg/mL,–,2 µg/mL,–,–,–,"minimal effective concentration ([2]; ATCC13073, RPMI plus 0.002% Tween-80, 48 hr, read-out: MEC): 0.25 µg/mL; MIC ([2]; ATCC13073, RPMI plus 0.002% Tween-80, 48 hr, read-out: MIC): > 64 µg/mL; minimal effective concentration ([3]; MMX5948, RPMI plus 0.002% Tween-80, 48 hr): > 64 µg/mL; MIC ([3]; MMX5948, RPMI plus 0.002% Tween-80, 48 hr, read-out: MIC): > 64 µg/mL; minimal effective concentration ([4]; Aspergillus niger, ATCC16888, RPMI plus 0.002% Tween-80, 48 hr, read-out: MEC): 0.12 µg/mL; MIC ([4]; Aspergillus niger, ATCC16888, RPMI plus 0.002% Tween-80, 48 hr, read-out: MIC): 0.12 µg/mL; MIC [5, 32]: > 64 µg/mL; minimal effective concentration [6, 21]: 1 µg/mL; MIC [6, 32]: > 64 µg/mL; MEC [7, 21]: 1 µg/mL; MIC [7, 21]: 8 µg/mL; MIC ([8]; Aspergillus fumigatus, RPMI plus 0.002% Tween-80, 48 hr, read-out: MIC): > 64 µg/mL; MIC ([8]; Without Tween-80, 48 hr): > 64 µg/mL; MIC ([9]; ATCC10231, RPMI plus 0.002% Tween-80, read-out: MIC): 0.03 µg/mL; MIC [10, 31]: 0.5 µg/mL"
"CC[C@H](C)[C@@H]1NC(=O)[C@@H]2CCCN2C(=O)[C@H](Cc2cccc(-c3ccc(OCc4ccccc4)cc3)c2)N(C)C(=O)[C@H](Cc2ccccc2)NC(=O)[C@H](C(C)C)N(C)C(=O)[C@@H]([C@@H](C)CC)OC(=O)[C@H](C(C)(C)O)N(C)C(=O)[C@H](CC(C)C)NC(=O)[C@H](C(C)C)N(C)C1=O [Compound 13] (cyclo(F[X19]PI[NMeV]L[NMeVal(β-OH)][Hmp(2R,3S)][NMeV]))",–,–,–,–,–,–,–,–,–,–,–,–,–,–,–,–,–,–,–,–,"MIC ([1]; ATCC22019, RPMI plus 0.002% Tween-80): > 64 µg/mL; MIC ([1]; ATCC22019, Without Tween-80): > 64 µg/mL; MIC ([2]; ATCC13073, 48 h, RPMI plus 0.002% Tween-80): > 64 µg/mL; minimal effective concentration ([2]; ATCC13073, 48 h, read-out: MEC, RPMI plus 0.002% Tween-80): 1 µg/mL; MIC [3, 16]: > 64 µg/mL; MEC [4, 21]: 2 µg/mL; MIC [4, 21]: 8 µg/mL; minimal effective concentration ([8]; Aspergillus fumigatus, 48 h, read-out: MEC, RPMI plus 0.002% Tween-80): > 64 µg/mL; minimal effective concentration ([8]; Aspergillus fumigatus, 48 h, read-out: MEC, Without Tween-80): > 64 µg/mL; MIC ([8]; Without Tween-80, 48 hr): >64/>64 μg/mL; MIC ([9]; ATCC10231, RPMI plus 0.002% Tween-80): 0.5 µg/mL"
